The values below come from US10800760B2, “Trk inhibition” (NantBio, Inc., priority 2017, dated 2020).

Each structure is given as a SMILES string.

The inhibition is the relative decrease from the control value, in per cent.

For the experiment, the target named is T1, TrkA(h) (Homo sapiens, UniProt P04629).
T1 construct: purchased Millipore (KinaseProfiler Service)
Put plainly: KinaseProfiler (Millipore) radiometric kinase assay, TrkA(h). Type of experiment: biochemical. The following applies: compound concentration 1 μM. Here is the method:
The KinaseProfiler™ Service Assay Protocols (Millipore) were used to test the kinase inhibiting activity of the novel compounds from this invention. To do this, the buffer composition was as follows: 20 mM MOPS, 1 mM EDTA, 0.01% Brij-35, 5% Glycerol, 0.1% β-mercaptoethanol, 1 mg/mL BSA. Test compounds were initially dissolved in DMSO at the desired concentration, then serially diluted into the kinase assay buffer. In a final reaction volume of 25 μL, TrkA(h) (5-10 mU) is incubated with 8 mM MOPS pH 7.0, 0.2 mM EDTA, 200 μM LRRASLG (Kemptide), 10 mM MgAcetate and [γ^33P-ATP]. The reaction was initiated by the addition of the MgATP mix. After incubation for 40 minutes at room temperature, the reaction was stopped by addition of 5 μL of a 3% phosphoric acid solution. 10 μL of the reaction was then spotted onto a P30 filtermat and washed three times for 5 minutes in 50 mM phosphoric acid and once in methanol prior to drying and scintillation counting. Wells containing substrate but no kinase and wells containing a phosphopeptide control were used to set 0% and 100% phosphorylation value, respectively.

T1 sequence (P04629 33-796): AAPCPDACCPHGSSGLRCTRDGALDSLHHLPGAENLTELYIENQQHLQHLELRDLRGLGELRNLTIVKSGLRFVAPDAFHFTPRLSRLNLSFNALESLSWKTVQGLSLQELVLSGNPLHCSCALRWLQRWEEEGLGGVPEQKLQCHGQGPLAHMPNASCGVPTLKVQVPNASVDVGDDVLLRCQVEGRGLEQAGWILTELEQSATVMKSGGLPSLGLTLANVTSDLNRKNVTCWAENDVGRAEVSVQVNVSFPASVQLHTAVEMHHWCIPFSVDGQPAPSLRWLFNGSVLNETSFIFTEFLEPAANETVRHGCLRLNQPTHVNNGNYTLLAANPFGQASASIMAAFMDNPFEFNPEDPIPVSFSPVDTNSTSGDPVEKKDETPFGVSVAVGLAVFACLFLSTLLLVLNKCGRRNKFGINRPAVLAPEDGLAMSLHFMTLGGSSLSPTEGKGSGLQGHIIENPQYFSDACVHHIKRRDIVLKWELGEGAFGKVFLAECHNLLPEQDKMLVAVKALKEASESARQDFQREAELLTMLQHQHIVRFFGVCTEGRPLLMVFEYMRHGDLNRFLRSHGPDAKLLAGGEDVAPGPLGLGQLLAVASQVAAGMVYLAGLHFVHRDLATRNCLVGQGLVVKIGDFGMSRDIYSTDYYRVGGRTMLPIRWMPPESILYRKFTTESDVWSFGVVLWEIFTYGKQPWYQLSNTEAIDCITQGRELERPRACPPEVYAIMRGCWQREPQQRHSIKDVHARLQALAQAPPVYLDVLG

Take `CC(Nc1cc(Nc2cc(C3CC3)[nH]n2)ncn1)c1c(F)cccc1F` (single isomer, unassigned) [Example 30]: the inhibition at 1 µM amounted to 100%.

As to `C[C@H](Nc1cc(Nc2cc(C3CC3)[nH]n2)ncn1)c1ccc(F)cc1` [Example 23, (S)—N4-(5-cyclopropyl-1H-pyrazol-3-yl)-N6-(1-(4-fluorophenyl)ethyl)pyrimidine-4,6-diamine], the inhibition at 1 µM was 99%. Still for that read-out and setting: to `Cc1c(Nc2cc(C3CC3)[nH]n2)ncnc1N[C@@H](C)c1ccc(F)cc1` [Example 24] belongs 31%; to `COc1c(Nc2cc(C3CC3)[nH]n2)ncnc1N[C@@H](C)c1ccc(F)cc1` [Example 25, (S)—N4-(5-cyclopropyl-1H-pyrazol-3-yl)-N6-(1-(4-fluorophenyl)ethyl)-5-methoxypyrimidine-4,6-diamine], 0%; to `C[C@H](Nc1ncnc(Nc2cc(C3CC3)[nH]n2)c1C#N)c1ccc(F)cc1` [Example 26], 49%. Same read-out and setting: to `C[C@H](Nc1ncnc(Nc2cc(C3CC3)[nH]n2)c1F)c1ccc(F)cc1` [Example 27] belongs 87%; to `C[C@H](Nc1ncnc(Nc2cc(C3CC3)[nH]n2)c1Cl)c1ccc(F)cc1` [Example 28, (S)-5-chloro-N4-(5-cyclopropyl-1H-pyrazol-3-yl)-N6-(1-(4-fluorophenyl)ethyl)pyrimidine-4,6-diamine], 56%; to `CN1CCN(c2ccc(CNc3ncnc(Nc4cc(C5CC5)[nH]n4)c3C#N)cc2)CC1` [Example 29], -5%. The same measure, in the same setting: the value for `CC(Nc1cc(Nc2cc(C3CC3)n(C(=O)OC(C)(C)C)n2)ncn1)c1c(F)cccc1F` (stereo not drawn) [Example 31] was 99%. As to `CC(Nc1cc(Nc2cc(C3CC3)[nH]n2)ncn1)c1ccc(F)cc1F` (stereo not drawn) [Example 32, N4-(5-cyclopropyl-1H-pyrazol-3-yl)-N6-(1-(2,4-difluorophenyl)ethyl)pyrimidine-4,6-diamine], the inhibition at 1 µM was 104%. Same read-out and setting: to `C[C@@H](Nc1cc(Nc2cc(C3CC3)[nH]n2)ncn1)c1ccc(F)cc1F` [Example 33] belongs 60%; to `C[C@H](Nc1cc(Nc2cc(C3CC3)[nH]n2)ncn1)c1ccc(F)cc1F` [Example 34], 101%; to `CC(Nc1cc(Nc2cc(C3CC3)[nH]n2)ncn1)c1cc(F)ccc1F` (stereo not drawn) [Example 35], 99%.

For `CC(Nc1cc(Nc2cc(C3CC3)[nH]n2)ncn1)c1ccc(F)cc1Cl` (stereo not drawn) [Example 36], the inhibition at 1 µM is 101%. The same measure, in the same setting: to `CC(Nc1cc(Nc2cc(C3CC3)[nH]n2)ncn1)c1ccc(F)c(Cl)c1` (stereo not drawn) [Example 37] belongs 97%. Still for that read-out and setting: the value for `c1ccc(C(CN2CCOCC2)Nc2cc(Nc3cc(C4CC4)[nH]n3)ncn2)cc1` (stereo not drawn) [Example 38] was 71%; that for `CN1CCN(CC(Nc2cc(Nc3cc(C4CC4)[nH]n3)ncn2)c2ccccc2)CC1` (stereo not drawn) [Example 39] was 7%. Still for that read-out and setting: the value for `OCC(Nc1cc(Nc2cc(C3CC3)[nH]n2)ncn1)c1ccc(F)cc1` (stereo not drawn) [Example 40] was 101%; that for `CC(c1cc(F)ccc1F)N(C)c1cc(Nc2cc(C3CC3)[nH]n2)ncn1` (stereo not drawn) [Example 42] was 95%. On to `CC(Nc1cc(Nc2cc(C3CC3)[nH]n2)ncn1)c1ccc(F)cn1` (stereo not drawn) [Example 43, N4-(5-cyclopropyl-1H-pyrazol-3-yl)-N6-(1-(5-fluoropyridin-2-yl)ethyl)pyrimidine-4,6-diamine], for which the inhibition at 1 µM was determined as 95%.

Regarding `CC(Nc1cc(Nc2cc(C3CC3)[nH]n2)ncn1)c1ccc(F)cn1` (stereo not drawn) [Example 44, N4-(5-cyclopropyl-1H-pyrazol-3-yl)-N6-(1-(5-fluoropyridin-2-yl)ethyl)pyrimidine-4,6-diamine], the “% Inhibition@ 1 μM (TrkA(h))” value came to 98%.

For `CC(Nc1cc(Nc2cc(C3CC3)[nH]n2)ncn1)c1ccc(F)cn1` (stereo not drawn) [Example 45, N4-(5-cyclopropyl-1H-pyrazol-3-yl)-N6-(1-(5-fluoropyridin-2-yl)ethyl)pyrimidine-4,6-diamine], the “% Inhibition@ 1 μM (TrkA(h))” value is reported as 100%.

Turning to `CC(Nc1cc(Nc2cc(C3CC3)[nH]n2)ncn1)c1ccc(F)cn1` (stereo not drawn) [Example 46, N4-(5-cyclopropyl-1H-pyrazol-3-yl)-N6-(1-(5-fluoropyridin-2-yl)ethyl)pyrimidine-4,6-diamine], the “% Inhibition@ 1 μM (TrkA(h))” value worked out at 98%.

As for `CC(Nc1cc(Nc2cc(C3CC3)n(C)n2)ncn1)c1ccc(F)cc1F` (stereo not drawn) [Example 47], the inhibition at 1 µM was found to be 25%. On the same count and under the same terms, the value for `CCn1nc(Nc2cc(NC(C)c3ccc(F)cc3F)ncn2)cc1C1CC1` (stereo not drawn) [Example 48] was 10%; that for `CC(Nc1cc(Nc2ccn(C3CCOCC3)n2)ncn1)c1ccc(F)cc1F` (stereo not drawn) [Example 49] was 5%; that for `Cc1cc(Nc2cc(NC(C)c3ccc(F)cc3F)ncn2)n[nH]1` (stereo not drawn) [Example 50] was 99%. Same read-out and setting: the value for `CCCc1cc(Nc2cc(NC(C)c3ccc(F)cc3F)ncn2)n[nH]1` (stereo not drawn) [Example 51] was 100%. With `CC(Nc1cc(Nc2cc(C3CC3)[nH]n2)ncn1)c1ccc(F)cn1` (stereo not drawn) [Example 52, N4-(5-cyclopropyl-1H-pyrazol-3-yl)-N6-(1-(5-fluoropyridin-2-yl)ethyl)pyrimidine-4,6-diamine], the “% Inhibition@ 1 μM (TrkA(h))” value came to 101%. Regarding `C[C@H](Nc1cc(Nc2cc(C3CC3)[nH]n2)nc(N)n1)c1ccc(F)cc1F` [Example 53], the inhibition at 1 µM turned out to be 100%. Take `C[C@H](Nc1cc(Nc2cc(C3CC3)[nH]n2)ncn1)c1ccc(F)cc1Cl` [Example 54]: the inhibition at 1 µM stood at 100%. As to `COCC(Nc1cc(Nc2cc(C3CC3)[nH]n2)ncn1)c1ccccc1` (stereo not drawn) [Example 55], the inhibition at 1 µM was determined as 85%. Still for that read-out and setting: to `CN(C)CC(Nc1cc(Nc2cc(C3CC3)[nH]n2)ncn1)c1ccccc1` (stereo not drawn) [Example 56] belongs 67%. For the compound `CC(Nc1cc(Nc2cc(C3CC3)[nH]n2)ncn1)c1ccc(F)cn1` (stereo not drawn) [Example 57, N4-(5-cyclopropyl-1H-pyrazol-3-yl)-N6-(1-(5-fluoropyridin-2-yl)ethyl)pyrimidine-4,6-diamine], the “% Inhibition@ 1 μM (TrkA(h))” value is reported as 95%. For `C[C@H](Nc1ncnc(Nc2cc(C3CC3)[nH]n2)n1)c1ccc(F)cc1F` [Example 58], the inhibition at 1 µM came out at 100%. On the same count and under the same terms, the value for `C[C@H](Nc1ncnc(Nc2cc(C3CC3)[nH]n2)n1)c1ccc(F)cc1Cl` [Example 59] was 100%.
